From patent US20070014736A1, “Methods of delivering corticotroph-derived glycoprotein hormone” (priority 2005, published 2007)

Tests used:
lipolysis in mice = experiment: Stimulation of lipolysis in vivo, serum glycerol and FFA; settings: fasted mice, IP; CGH 300 μg/kg, CL 1 mg/kg
Procedure: CGH, the β3-adrenoreceptor agonist CL 316,243 (CL), and saline vehicle were examined for stimulation of lipolysis in mice following an overnight fast. […] Lipolysis was assessed as the percent change in serum glycerol or FFA over the 2 hour period. The serum glycerol and FFA for the vehicle groups decreased by 7%±9% and 24%±15%, respectively. The serum glycerol for the CGH group increased by 57%±20%; p=0.0254, and the FFA levels increased 25%±5%; p=0.0188.
C57 BL/6 male mice, age 19 weeks, were grouped to normalize weight (n=4 for each treatment; average group weight=37.8 g±0.4 g). Mice were housed individually for 18 hours prior to treatment, at which time food was withdrawn, with free access to water given. At approximately 8 a.m., the subjects were anesthetized with halothane and blood samples taken by retro-orbital eye bleed. The blood was allowed to clot, and the serum was separated by centrifugation and frozen for later analysis. Test substances were administered by IP injection in a volume of 0.1 ml, and the animals replaced in their cages for 2 hours with free access to water. At 2 hours, the mice were sacrificed and blood drawn by cardiac puncture.
For measuring free fatty acids in serum, the method previously described for measuring free fatty acids in conditioned media was followed, with the following modifications. Wako reagents A and B were reconstituted to 2× the recommended concentration. 75 μl of Wako reagent A were added to 5 μl of oleic acid standard plus 5 μl of water. 75 μl of Wako reagent A were added to 5 μl of serum plus 5 μl of methanol (to mirror the oleic acid standard conditions). The 96-well plates were incubated at 37° C. for 10 minutes. 150 μl of Wako reagent B were added to each well. The 96-well plates were incubated at 37° C. for 10 minutes. The 96-well plates were allowed to sit at room temperature for 5 minutes. The 96-well plates were centrifuged in a Beckman Coulter Allegra 6R centrifuge at 3250×g for 5 minutes to remove air bubbles. The absorbance at 530 nm was measured on the Wallac Victor2 Multilabel counter.
For measuring glycerol in serum, the method previously described for measuring glycerol in conditioned media was followed, with the modifications described below.
Sigma reagent A was reconstituted to 0.5× the recommended concentration. 200 μl of Sigma reagent A were added to 10 μl of glycerol standard. 200 μl of Sigma reagent A were added to 5 μl of serum plus 5 μI of water. The 96-well plates were incubated for 15 minutes at room temperature. The 96-well plates were centrifuged in a Beckman Coulter Allegra 6R centrifuge at 3250×g for 5 minutes to remove air bubbles. The absorbance at 530 nm was measured on the Wallac Victor2 Multilabel counter.

obese male ob/ob mice = experiment: Chronic 28-day treatment of ob/ob mice; type: in vivo
Procedure: Summary: CGH was administered daily for 28 days to obese male ob/ob mice. Mice were also treated with vehicle saline and thyroxine. Data was obtained for food intake, blood glucose, serum insulin, serum lipids, and serum thyroid hormone levels. At sacrifice, animals were examined for changes in liver pathology, and gross histology. […] Evaluation of liver histology sections was performed to examine the effect of CGH-mediated lipolysis on liver steatosis.
11-week old male ob/ob mice were individually caged and given a standard lab chow (4% fat) with free access to food and water. Animals were assigned to a treatment group (n=7−8, average weight 54.3±0.3 g/group), kept on a 12 hour dark cycle (6 PM to 6 AM), and injected each day between 7 and 9 AM. Chow consumed by each animal was weighed twice weekly. All animals received treatments IP in an injection volume of 0.1 ml. CGH was administered at 250 μg/kg, dissolved in sterile saline. Thyroxine (T4) was administered at 1.5 μg/mouse for 4 days, reduced to 1 μg/mouse for 10 days, and returned to 1.5 μg/mouse for the next 14 days. The vehicle controls received sterile saline. TSH was obtained from Genzyme Pharmaceuticals (Thyrogen®, Catalog number 36778; Genzyme Corporation, Cambridge, Mass.), and T4 obtained from Calbiochem, Inc. (EMD Biosciences, catalog number 61205, San Diego, Calif.) All blood draws were performed by retro-orbital puncture under isoflurane anesthesia.
After 25 days of treatment as described above, blood was sampled from all treated animals, serum separated, and analyzed for total T4 by a commercially available kit (Biocheck, Burlingame, Calif.). After 25 days of treatment, the vehicle T4 levels were 5.14±0.08 μg/dl. The CGH-treated group had T4 levels of 7.25±1.2 μg/dl, and the thyroxine-treated group had T4 levels of 9.04±0.47 μg/dl.
Subject animals were fasted for 4 hours at the beginning of the light cycle, and serum was obtained at treatment day 25 under isoflurane anesthesia. Serum Glucose levels were determined with the Cholestech LDX blood analyzer (Cholestech Corporation, Hayward Calif.), and serum insulin levels by ELISA. Serum glucose levels for vehicle and thyroxine treated groups were 306±22 and 295±23 mg/dl, respectively. […] Serum insulin levels for the vehicle and thyroxine treated groups were 33.5±1.8 and 25.9±1.7 ng/ml, respectively.
Subject animals were fasted for 4 hours at the beginning of the light cycle, and serum was obtained at treatment day 25 under isoflurane anesthesia. Triglyceride and total cholesterol levels were determined with the Cholestech LDX blood analyzer. Serum triglyceride levels for the vehicle controls were 143.7±23 mg/dl. […] Total cholesterol levels in the vehicle-treated and thyroxine-treated groups were 198±13 and 194±15 mg/dl, respectively.
Liver sections were dissected from all treatment groups described above and mounted in paraffin following fixation with NBS-formalin. Sections were mounted and stained with hematotoxylin and eosin (H&E) for visualization of hepatic structural changes. The extent of liver steatosis was evaluated on a four-point scale, from 0 to 3, with zero displaying no signs of liver steatosis, and a […], represented pronounced macrovesicular and microvesicular steatosis. […] Average scores given to the groups were vehicle (4), thyroxine (3), and CGH (1.5). […] The CGH treated sections appear to have regained hallmarks of normal hepatocyte architecture in only 28 days of treatment, with areas containing hepatocytes without lipid-laden inclusions in the cytoplasm of the cell.

[1] = tested on: LPS-induced mild endotoxemia mouse model; experiment: LPS-induced mild endotoxemia mouse model, serum cytokines; type: in vivo, mice; settings: 2 mg/kg monomer, data not shown
Procedure: An in vivo experiment was designed to examine the effect of CGH in a mouse model of LPS-induced mild endotoxemia. This model mimics acute endotoxemia/sepsis by challenging mice with a low, non-lethal dose of bacterial endotoxin (lipopolysaccharide, LPS). Serum is collected at various timepoints (1-8 hours) after intraperitoneal LPS injection and analyzed for altered expression of a wide variety of pro- and anti-inflammatory cytokines and acute phase proteins that mediate the inflammatory response. The model provides a means to assess the potential anti-inflammatory effects of therapeutic candidates during a robust inflammatory response. To initially assess the model, we measured proinflammatory cytokines in a pilot experiment to collect reference data for the model.
C57B1/6 mice (Charles River Laboratories; 5 mice/group) were treated i.p. with PBS, 0.2 mg/kg CGH in PBS, or 2 mg/kg CGH in PBS 1 hour prior to LPS challenge. The mice were then challenged with 25 ug of LPS i.p. and bled at 1 hour and 4 hours after LPS injection. Serum was analyzed for TNF[…] (1 hour) and IL-6 (4 hours) levels by ELISA.
To determine if CGH would potentiate the effect of a sub-maximal dose of glucocorticoid, groups of 10 C57B1/6 mice each were treated i.p. with PBS, 0.15 or 1.5 mg/kg Dex, 2 mg/kg CGH, or a combination of CGH and low or high doses of Dex, 1 hour prior to injection of 25 ug LPS i.p. As shown in TABLE 3 (Expt #2), either 2 mg/kg CGH or 1.5 mg/kg Dex treatment alone (1 hour prior to LPS) caused a significant drop in serum TNFα levels at 1 hour, as observed in previous experiments. The effects of CGH administered in conjunction with Dex on inhibition of TNFα production were greater than either dose of Dex alone.

TSHR = experiment: Binding of 125I-CGH and 125I-TSH to BHK cells expressing the TSHR; design: species or system murine or human; settings: increasing amounts of unlabeled protein
Procedure: BHK cells expressing murine or human TSHRs were cultured in Dulbecco's Modified Eagle's Medium [DMEM (high glucose)] containing 5% fetal bovine serum, 1% Glutamax, 1% sodium pyruvate, 250 nM methotrexate, and Geneticin ( 1/100). […] Plates of cells were placed on ice and washed twice with 1.0-2.0 ml of ice-cold PBS. […] Specific binding was determined in the presence (nonspecific binding) and absence (total binding) of unlabeled rhCGH (25.0 μg/ml) or TSH (10 μg/ml). Binding reactions were terminated by removing the binding medium and the cell monolayers were washed three times with 1.0-2.0 ml of ice-cold PBS containing 1.0 mg/ml BSA and twice with 1.0-2.0 ml of ice cold albumin-free PBS. Cells were solubilized in 1.0 ml of 1.0N NaOH for 10 min at room temperature and cell-associated radioactivity was determined in a gamma counter. The measured radioactivity was normalized to cell number that was determined on plates of cells cultured in parallel. Binding data were analyzed by non-linear regression using Prizm 3.0 (GraphPad Software, San Diego, Calif.).

C[C@H](Cc1ccc2c(c1)OC(C(=O)[O-])(C(=O)[O-])O2)NC[C@H](O)c1cccc(Cl)c1.[Na+].[Na+] [CL, CL 316,243, reference compound]
percent change (increase) in serum FFA over 2 hours (lipolysis in mice): 82%±16%
percent change (increase) in serum glycerol over 2 hours (lipolysis in mice): 168%±23%

N[C@@H](Cc1cc(I)c(Oc2cc(I)c(O)c(I)c2)c(I)c1)C(=O)O [thyroxine, reference compound]
liver steatosis average score (obese male ob/ob mice; H&E liver sections, 28 days, n=4): 3
serum total T4 levels (obese male ob/ob mice; after 25 days of treatment): 9.04 ± 0.47 µg/dL
Serum glucose levels (obese male ob/ob mice; day 25, fasted 4 hours): 295 ± 23 mg/dL
Serum insulin levels (obese male ob/ob mice; day 25, fasted 4 hours): 25.9 ± 1.7 ng/mL
Serum triglyceride levels (obese male ob/ob mice; day 25, fasted 4 hours): 198 ± 43 mg/dL
Total cholesterol levels (obese male ob/ob mice; day 25, fasted 4 hours): 194 ± 15 mg/dL
Food intake (obese male ob/ob mice; ob/ob mice, CGH 250 μg/kg IP daily, T4 1-1.5 μg/mouse): 6.1±0.17 grams/day of chow

B1: zsig51: alpha subunit of CGH, glycoprotein hormone alpha2, previously called Zsig51 (protein)
chain: QEAVIPGCHLHPFNVTVRSDRQGTCQGSHVAQACVGHCESSAFPSRYSVLVASGYRHNITSVSQCCTISGLKKVKVQLQCVGSRREELEIFTARACQCDMCRLSRY
effect on serum TNFα or IL-6 levels [1]: neither of these monomers had any effect
reduction of the amount of 125I-CGH bound by unlabeled competitor (TSHR): neither unlabeled rhTSH (FIG. 1C) nor unlabeled rhGPHA2 nor rhGPHB5 (data not shown) reduced the amount of ^125I-CGH bound

B2: zlut1: beta subunit of CGH, glycoprotein hormone beta 5, previously called Zlut1 (protein)
chain: ASSGNLRTFVGCAVREFTFLAKKPGCRGLRITTDACWGRCETWEKPILEPPYIEAHHRVCTYNETKQVTVKLPNCAPGVDPFYTYPVAIRCDCGACSTATTECETI
effect on serum TNFα or IL-6 levels [1]: neither of these monomers had any effect
reduction of the amount of 125I-CGH bound by unlabeled competitor (TSHR): neither unlabeled rhTSH (FIG. 1C) nor unlabeled rhGPHA2 nor rhGPHB5 (data not shown) reduced the amount of ^125I-CGH bound
